Tested on: flies expressing polyQ-expanded AR in motor neurons (OK371>UAS-AR52Q)
Experiment: Locomotor activity of adult SBMA flies
Assay type: in vivo, Drosophila
Settings: 1 mM DHT+100 μM compound
Excerpt: UAS-AR52Q, UAS-AR52Q-K720A, and UAS-AR66Q-E897K fly stocks were generated as previously described^8. Fly stocks were crossed to various GAL4 driver lines (ELAV-GAL4 for pan-neuronal, OK371-GAL4 for motor neuron, GMR-GAL4 for eye) to induce expression of the AR transgene in a tissue-specific manner in fly vials containing fly food with either vehicle (1% ethanol +/−0.1% DMSO) or drugs. Upon the presence of progeny, parental flies were removed, and F1 flies were scored for phenotypic analysis. Viability was determined as previously described^40. Briefly, the population frequency of adult F1 SBMA flies (ELAV>UAS-AR52Q or OK371>UAS-AR52Q) and control flies (GAL4-ELAV; CyO-GFP) were determined by the presence or absence of the CyO phenotypic marker. At least three independent biological replicates (F0 crosses) were performed with new drug/food preparations for each treatment group, and a total of at least 50 flies were scored for each treatment group. To determine locomotor activity of SBMA flies, adult F1 flies (OK371>UAS-AR52Q) reared on food containing vehicle or drug were allowed to walk for 90 seconds in one well of a 12-well tissue culture plate while video was recorded using a Leica M205C stereomicroscope and Leica DFC320 digital camera. Videos were recorded for at least 15 flies per treatment group. […]

Cc1ccc(OCCn2c(SCCOc3ccccc3)nc3ccccc32)cc1 [MEPB, 1-[2-(4-methylphenoxy)ethyl]-2-[(2-phenoxyethyl)sulfanyl]-1H-benzimidazole]
locomotor function (displacement and velocity of walking): significantly restored locomotor function

— US11707449B2, “Methods and formulations for treatment of spinobulbar muscular atrophy” (ST. JUDE CHILDREN'S RESEARCH HOSPITAL, INC., priority 2017, dated 2023)
